Results as given in patent publication US10526316B2, “Quinoxaline and pyridopyrazine derivatives as PI3Kβ inhibitors” (Janssen Pharmaceutica NV, priority 2015, dated 2020).
Read-outs that look alike come from different tables or passages of the source.

Experiments:
PI3Kβ = target: T1, PI3Kβ (Homo sapiens, UniProt P42338); assay: Enzyme binding assay (KINOMEscan, DiscoveRx); details: PIK3Cβ_h, read-out: Kd PIK3Cβ_h
T1 construct: purchased DiscoveRx Corporation, San Diego (contract service, KINOMEscan)
Method in brief: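 Kinase binding affinities were measured with KINOMEscan technology. Results are given as Kd, the inhibitor binding constant, in nM.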

PI3Kδ = target: T2, PI3Kδ (Homo sapiens, UniProt O00329); assay: Enzyme binding assay (KINOMEscan, DiscoveRx); details: PIK3Cδ_h
T2 construct: purchased DiscoveRx Corporation, San Diego (contract service, KINOMEscan)
T2 sequence (O00329 1-1044): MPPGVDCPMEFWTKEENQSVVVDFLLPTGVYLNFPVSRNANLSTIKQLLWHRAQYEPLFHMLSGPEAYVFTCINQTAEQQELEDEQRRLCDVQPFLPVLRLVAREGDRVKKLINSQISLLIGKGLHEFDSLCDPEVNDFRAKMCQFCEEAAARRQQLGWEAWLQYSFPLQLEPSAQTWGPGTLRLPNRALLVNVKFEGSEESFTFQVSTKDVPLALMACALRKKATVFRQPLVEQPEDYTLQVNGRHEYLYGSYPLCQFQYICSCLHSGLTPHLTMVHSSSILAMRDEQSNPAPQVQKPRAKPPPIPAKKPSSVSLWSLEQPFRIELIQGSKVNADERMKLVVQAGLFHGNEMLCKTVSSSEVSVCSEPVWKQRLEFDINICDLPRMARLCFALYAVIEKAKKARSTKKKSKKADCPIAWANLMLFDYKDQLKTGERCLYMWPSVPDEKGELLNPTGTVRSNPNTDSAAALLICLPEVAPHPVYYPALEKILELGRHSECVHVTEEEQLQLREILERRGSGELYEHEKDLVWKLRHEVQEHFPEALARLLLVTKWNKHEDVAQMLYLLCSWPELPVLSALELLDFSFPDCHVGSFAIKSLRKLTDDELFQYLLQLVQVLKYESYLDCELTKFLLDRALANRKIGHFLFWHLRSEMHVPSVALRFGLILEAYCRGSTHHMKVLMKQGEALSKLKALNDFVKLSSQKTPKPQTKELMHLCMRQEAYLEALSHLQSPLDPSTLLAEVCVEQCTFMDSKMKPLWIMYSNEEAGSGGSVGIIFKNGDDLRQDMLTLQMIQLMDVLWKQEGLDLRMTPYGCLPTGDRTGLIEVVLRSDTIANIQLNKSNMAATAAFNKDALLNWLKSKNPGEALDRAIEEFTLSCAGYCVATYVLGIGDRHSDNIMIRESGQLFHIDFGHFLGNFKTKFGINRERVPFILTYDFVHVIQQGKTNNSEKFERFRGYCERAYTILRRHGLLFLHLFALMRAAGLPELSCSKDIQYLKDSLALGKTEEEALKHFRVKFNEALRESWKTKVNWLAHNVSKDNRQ
Method in brief: (§1)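 Binding affinities were measured on the KINOMEscan platform.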

kinase enzymes [1] = target: T3, kinase enzymes (Homo sapiens, UniProt P42336); assay: Enzyme binding assay (KINOMEscan, DiscoveRx), further kinases of Table A; details: PIK3Cα_h
T3 construct: purchased DiscoveRx Corporation, San Diego (contract service, KINOMEscan)
Method in brief: as §1

kinase enzymes [2] = target: T4, kinase enzymes (Homo sapiens, UniProt P42345); assay: as above; details: MTOR_h
T4 construct: purchased DiscoveRx Corporation, San Diego (contract service, KINOMEscan)
Method in brief: as §1

kinase enzymes [3] = target: T5, kinase enzymes (Homo sapiens, UniProt P48736); assay: as above; details: PIK3Cγ_h
T5 construct: purchased DiscoveRx Corporation, San Diego (contract service, KINOMEscan)
Method in brief: as §1

[4] = test system: Akt phosphorylated at Ser473 in PC-3 cells; assay: Cellular assay: phosphorylation of Akt at Ser473 in PC-3 cells (MSD ELISA); type: cell-based; details: PC-3 cells, 60 min compound incubation, MSD ELISA, read-out: IC50 pAkt_S473
Method in brief: (§2)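 Electrochemiluminescent sandwich ELISA read-out: phospho-specific capture (Ser473 or Thr308), Sulfo-tag anti-total Akt detection, signal proportional to phospho-Akt. Cells treated 60 min at 37° C with compound, DMSO 0.3%. IC50 fitted from five concentrations.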

[5] = test system: Akt phosphorylated at Thr308 in PC-3 cells; assay: Cellular assay: phosphorylation of Akt at Thr308 in PC-3 cells (MSD ELISA); type: cell-based; details: PC-3 cells, 60 min compound incubation, MSD ELISA, read-out: IC50 pAkt_Thr308
Method in brief: as §2

T3 sequence (P42336 whole entry): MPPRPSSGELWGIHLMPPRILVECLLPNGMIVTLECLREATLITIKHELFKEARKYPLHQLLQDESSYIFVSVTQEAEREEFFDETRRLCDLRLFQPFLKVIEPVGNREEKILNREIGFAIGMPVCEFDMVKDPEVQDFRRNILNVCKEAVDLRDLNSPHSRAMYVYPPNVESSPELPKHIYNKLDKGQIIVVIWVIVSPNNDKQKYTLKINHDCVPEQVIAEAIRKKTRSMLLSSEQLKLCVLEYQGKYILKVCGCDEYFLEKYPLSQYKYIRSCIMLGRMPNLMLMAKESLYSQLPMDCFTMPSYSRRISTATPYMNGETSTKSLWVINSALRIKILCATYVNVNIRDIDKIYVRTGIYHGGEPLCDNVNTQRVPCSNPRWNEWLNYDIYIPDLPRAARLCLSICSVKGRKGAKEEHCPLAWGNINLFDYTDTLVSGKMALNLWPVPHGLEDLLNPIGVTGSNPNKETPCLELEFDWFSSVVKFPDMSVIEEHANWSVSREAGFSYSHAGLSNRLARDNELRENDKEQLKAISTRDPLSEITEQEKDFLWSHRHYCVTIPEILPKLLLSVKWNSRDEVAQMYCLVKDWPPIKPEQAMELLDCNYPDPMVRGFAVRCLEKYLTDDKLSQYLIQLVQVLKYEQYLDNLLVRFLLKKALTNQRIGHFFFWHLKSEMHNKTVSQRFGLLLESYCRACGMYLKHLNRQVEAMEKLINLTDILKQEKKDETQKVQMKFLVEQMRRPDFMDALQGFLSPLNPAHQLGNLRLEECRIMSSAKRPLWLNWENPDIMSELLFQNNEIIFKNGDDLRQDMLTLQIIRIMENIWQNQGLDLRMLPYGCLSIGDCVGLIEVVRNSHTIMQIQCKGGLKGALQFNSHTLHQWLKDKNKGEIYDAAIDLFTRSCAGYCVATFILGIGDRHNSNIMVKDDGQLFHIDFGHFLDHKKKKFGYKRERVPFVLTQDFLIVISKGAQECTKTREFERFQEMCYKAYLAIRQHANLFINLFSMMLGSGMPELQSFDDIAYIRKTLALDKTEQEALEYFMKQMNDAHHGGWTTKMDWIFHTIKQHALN
T5 sequence (P48736 whole entry): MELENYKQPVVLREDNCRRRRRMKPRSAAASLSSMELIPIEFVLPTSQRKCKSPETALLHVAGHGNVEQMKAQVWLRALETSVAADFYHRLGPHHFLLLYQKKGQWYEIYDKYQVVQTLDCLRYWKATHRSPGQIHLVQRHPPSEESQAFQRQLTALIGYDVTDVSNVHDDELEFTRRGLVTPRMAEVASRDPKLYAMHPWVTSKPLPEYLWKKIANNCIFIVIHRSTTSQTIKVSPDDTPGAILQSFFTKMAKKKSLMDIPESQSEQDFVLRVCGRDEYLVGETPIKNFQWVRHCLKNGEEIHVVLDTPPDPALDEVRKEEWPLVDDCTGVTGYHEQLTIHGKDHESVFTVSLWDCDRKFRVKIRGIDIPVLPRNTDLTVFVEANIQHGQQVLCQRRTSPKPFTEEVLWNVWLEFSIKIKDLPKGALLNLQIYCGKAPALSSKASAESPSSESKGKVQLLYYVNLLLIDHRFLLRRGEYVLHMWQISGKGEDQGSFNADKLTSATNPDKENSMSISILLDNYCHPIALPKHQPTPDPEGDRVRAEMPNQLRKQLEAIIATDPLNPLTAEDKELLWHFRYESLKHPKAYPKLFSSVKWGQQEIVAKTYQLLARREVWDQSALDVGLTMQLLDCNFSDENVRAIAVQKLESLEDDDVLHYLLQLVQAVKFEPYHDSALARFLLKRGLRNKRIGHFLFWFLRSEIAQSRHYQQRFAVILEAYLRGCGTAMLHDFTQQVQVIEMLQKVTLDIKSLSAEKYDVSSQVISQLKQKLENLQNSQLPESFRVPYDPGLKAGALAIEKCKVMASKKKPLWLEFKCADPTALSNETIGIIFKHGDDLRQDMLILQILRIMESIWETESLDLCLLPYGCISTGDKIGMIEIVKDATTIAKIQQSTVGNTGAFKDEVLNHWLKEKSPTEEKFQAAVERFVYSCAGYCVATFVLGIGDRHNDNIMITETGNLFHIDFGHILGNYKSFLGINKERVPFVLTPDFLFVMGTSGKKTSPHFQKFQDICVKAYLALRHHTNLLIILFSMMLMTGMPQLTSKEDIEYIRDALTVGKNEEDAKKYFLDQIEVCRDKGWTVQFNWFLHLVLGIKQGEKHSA
T1 sequence (P42338 whole entry): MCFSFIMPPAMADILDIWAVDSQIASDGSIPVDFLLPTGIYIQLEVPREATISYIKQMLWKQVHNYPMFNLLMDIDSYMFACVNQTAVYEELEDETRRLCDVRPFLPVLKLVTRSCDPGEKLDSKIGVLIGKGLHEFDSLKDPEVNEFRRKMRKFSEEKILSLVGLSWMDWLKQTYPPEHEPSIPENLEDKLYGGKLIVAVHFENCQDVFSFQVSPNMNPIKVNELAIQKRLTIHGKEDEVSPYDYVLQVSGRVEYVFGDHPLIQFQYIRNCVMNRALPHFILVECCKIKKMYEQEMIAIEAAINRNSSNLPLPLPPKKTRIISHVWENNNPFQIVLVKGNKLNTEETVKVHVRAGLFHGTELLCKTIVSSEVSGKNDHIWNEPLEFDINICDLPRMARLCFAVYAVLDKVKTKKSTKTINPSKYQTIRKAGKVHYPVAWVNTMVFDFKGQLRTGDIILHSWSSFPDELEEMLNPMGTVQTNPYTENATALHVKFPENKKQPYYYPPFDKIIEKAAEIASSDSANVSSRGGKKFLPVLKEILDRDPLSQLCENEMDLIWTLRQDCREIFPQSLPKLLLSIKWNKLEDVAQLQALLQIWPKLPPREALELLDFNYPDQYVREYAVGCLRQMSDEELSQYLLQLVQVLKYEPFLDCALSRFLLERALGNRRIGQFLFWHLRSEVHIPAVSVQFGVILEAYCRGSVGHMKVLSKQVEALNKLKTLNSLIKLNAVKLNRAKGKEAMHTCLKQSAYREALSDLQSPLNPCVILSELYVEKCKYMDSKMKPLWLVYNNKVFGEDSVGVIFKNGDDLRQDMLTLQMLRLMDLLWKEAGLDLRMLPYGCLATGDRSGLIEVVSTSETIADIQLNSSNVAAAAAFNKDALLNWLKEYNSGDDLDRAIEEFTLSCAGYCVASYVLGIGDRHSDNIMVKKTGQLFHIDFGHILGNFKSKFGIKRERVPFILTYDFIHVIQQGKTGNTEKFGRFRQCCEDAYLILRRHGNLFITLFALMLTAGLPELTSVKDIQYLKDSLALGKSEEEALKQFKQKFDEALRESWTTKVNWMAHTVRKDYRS

| Kd (PI3Kβ) | Kd (PI3Kδ) | Kd (kinase enzymes [1]) | Kd (kinase enzymes [2]) | Kd (kinase enzymes [3]) | IC50 ([4]; Homo sapiens, PC-3, 1 h) | IC50 ([5]; Homo sapiens, PC-3, 1 h) | melting point | IC50 [4] | IC50 [5] | SMILES |
| --- | --- | --- | --- | --- | --- | --- | --- | --- | --- | --- |
| 0.1 nM | 26 nM | 339 nM | 22900 nM | 2750 nM | – | – | 121 °C | 14 nM | 6 nM | CC(Nc1ccc(F)c(F)c1)c1cc(C(=O)NCC2CCCN2)cc2ncc(N3CCOCC3)nc12 (single isomer, unassigned) [Compound 329a] |
| 0.4 nM | 31 nM | 49 nM | 25100 nM | 525 nM | – | – | 80 °C | ~5 nM | 4 nM | CN1CCN(C(=O)c2cc(C3CCCN3c3cc(F)cc(F)c3)c3nc(N4CCOCC4)cnc3c2)CC1 (single isomer, unassigned) [Compound 57] |
| 0.5 nM | 135 nM | 363 nM | 6170 nM | 240 nM | 89 nM | 65 nM | 159 °C | – | – | CNCCNC(=O)c1cc(C(C)N(C)c2cccc(F)c2)c2nc(N3CCOCC3)cnc2c1 (centres unmarked) [Compound 130] |
| 2 nM | 437 nM | 1740 nM | > 30200 nM | 5620 nM | 59 nM | 28 nM | 80 °C | – | – | CC(Nc1cc(F)cc(F)c1)c1cc(C(=O)N2CCN(C)CC2)cc2ncc(N3CCOCC3)nc12 (centres unmarked) [Compound 144] |
| 2 nM | 398 nM | 2950 nM | > 30200 nM | 2340 nM | 251 nM | 138 nM | 80 °C | – | – | CC(Nc1cc(F)cc(F)c1)c1cc(C(=O)NCCOCCN)cc2ncc(N3CCOCC3)nc12 (centres unmarked) [Compound 149] |
| 16 nM | 933 nM | 2190 nM | > 30200 nM | 7590 nM | > 513 nM | 468 nM | 80 °C | – | – | CC(C)NCc1cc(F)cc(N2CCCC2c2cc(C(=O)N(C)C)cc3ncc(N4CCOCC4)nc23)c1 (centres unmarked) [Compound 49] |
| 0.1 nM | 19 nM | 50 nM | > 30200 nM | 251 nM | 7 nM | 7 nM | 90 °C | – | – | OC1CN(Cc2cc(C3CCCN3c3cc(F)cc(F)c3)c3nc(N4CCOCC4)cnc3c2)C1 (centres unmarked) [Compound 76] |
| 0.3 nM | 141 nM | 2460 nM | > 30200 nM | 5890 nM | – | – | 132 °C | 32 nM | 17 nM | CC(Nc1ccc(F)c(F)c1)c1cc(C(=O)N[C@H]2CCNC2)cc2ncc(N3CCOCC3)nc12 (single isomer, unassigned) [Compound 374a] |
| 0.3 nM | 68 nM | 2190 nM | > 30200 nM | 6170 nM | – | – | 80 °C | 42 nM | 26 nM | CC(Nc1ccc(F)c(F)c1)c1cc(C(=O)N(C)C2CCNC2)cc2ncc(N3CCOCC3)nc12 (centres unmarked) [Compound 322b] |
| 19500 nM | > 30200 nM | > 30200 nM | > 30200 nM | 4570 nM | > 513 nM | > 513 nM | 120 °C | – | – | Cc1ccc(NC(C)c2cc(C(=O)NCCO)cc3ncc(N4CCOCC4)nc23)cc1F (single isomer, unassigned) [Compound 295b] |
| 631 nM | 3550 nM | 3980 nM | 18600 nM | 32400 nM | – | – | 102 °C | > 513 nM | > 513 nM | CN(C)C(=O)c1cc(N2CCCC2c2cc(F)cc(F)c2)c2nc(N3CCOCC3)cnc2c1 (single isomer, unassigned) [Compound 395b] |
| 0.5 nM | 69 nM | 39 nM | 1480 nM | 100 nM | > 513 nM | > 513 nM | 160 °C | – | – | CC(Nc1cc(F)cc(F)c1)c1cc(C(=O)NS(N)(=O)=O)cc2ncc(N3CCOCC3)nc12 (single isomer, unassigned) [Compound 243a] |

Second part, the compound before the results:

| SMILES | Kd (PI3Kβ) | Kd (PI3Kδ) | Kd (kinase enzymes [1]) | Kd (kinase enzymes [2]) | Kd (kinase enzymes [3]) | IC50 ([4]; Homo sapiens, PC-3, 1 h) | IC50 ([5]; Homo sapiens, PC-3, 1 h) | melting point | IC50 [4] | IC50 [5] |
| --- | --- | --- | --- | --- | --- | --- | --- | --- | --- | --- |
| CNCCNC(=O)c1cc(C(C)Nc2cc(F)cc(Cl)c2)c2nc(N3CCOCC3)cnc2c1 (centres unmarked) [Compound 147] | 0.4 nM | 129 nM | 776 nM | > 30200 nM | 1150 nM | 10 nM | 6 nM | 80 °C | – | – |
| CC(Nc1cc(F)cc(F)c1)c1cc(CN2CCOCC23COC3)cc2ncc(N3CCOCC3)nc12 (single isomer, unassigned) [Compound 192] | 9120 nM | > 30200 nM | > 30200 nM | > 30200 nM | > 30200 nM | – | – | 229 °C | > 513 nM | > 513 nM |
| CN(CCO)C(=O)c1cc(C2CCCN2c2cc(F)cc(F)c2)c2nc(N3CCOCC3)cnc2c1 (centres unmarked) [Compound 50] | 0.2 nM | 8 nM | 11 nM | 8910 nM | 87 nM | 1 nM | 1 nM | 80 °C | – | – |
| CC(Sc1ccccc1)c1cc(C(=O)N(C)C)cc2ncc(N3CCOCC3)nc12 (centres unmarked) [Compound 135] | 195 nM | 3800 nM | 10000 nM | 11200 nM | 17400 nM | > 513 nM | > 513 nM | 144 °C | – | – |
| CC(Oc1cc(F)ccc1Br)c1cc(C(=O)N(C)C)cc2ncc(N3CCOCC3)nc12 (centres unmarked) [Compound 78] | 15 nM | 1170 nM | 3720 nM | > 30200 nM | 13500 nM | ~219 nM | ~295 nM | 235 °C | – | – |
| COC(=O)c1cc(C2CCCN2c2cc(F)cc(F)c2)c2nc(N3CCOCC3)cnc2c1 (single isomer, unassigned) [Compound 31] | > 32000 nM | > 32000 nM | > 32000 nM | > 32000 nM | > 32000 nM | – | – | 213 °C | > 513 nM | > 513 nM |
| CC(Nc1cc(F)c(F)c(F)c1)c1cc(C(=O)NCC(C)(C)O)cc2ncc(N3CCOCC3)nc12 (single isomer, unassigned) [Compound 292a] | 17 nM | 603 nM | 2820 nM | 32400 nM | 21900 nM | – | – | 110 °C | 155 nM | 98 nM |
| Cc1c(F)cccc1CNc1cc(C(=O)NCCO)cc2ncc(N3CCOCC3)nc12 [Compound 336] | 4 nM | 871 nM | 1950 nM | 11000 nM | 9120 nM | 85 nM | 46 nM | 194 °C | – | – |
| CN[C@@H]1CCN(C(=O)c2cc(C(C)Nc3ccc(F)c(F)c3)c3nc(N4CCOCC4)cnc3c2)C1 (single isomer, unassigned) [Compound 371a] | 0.3 nM | 83 nM | 1510 nM | > 30200 nM | 1050 nM | – | – | 114 °C | 10 nM | 2 nM |
| O=C(NCCCO)c1cc(C2CCCN2c2cc(F)cc(F)c2)c2nc(N3CCOCC3)cnc2c1 (centres unmarked) [Compound 66] | 2 nM | 79 nM | 65 nM | 17000 nM | 676 nM | 13 nM | 6 nM | 80 °C | – | – |
